Source: publication PMC5843810, “18th European Symposium on Radiopharmacy and Radiopharmaceuticals” (EJNMMI Radiopharmacy and Chemistry, 2016)
Read-outs that look alike come from different tables or passages of the source. Where a SMILES comes first, the peptide text is derived from it. Bridges are numbered along the chain shown (N, C = ends). [ ]: non-standard residue; d: D form. Ahx = NCCCCCC(=O)O; βAla = NCCC(=O)O

Experiments:
[1] = healthy Balb/c mice n=5, i.v., 1h p.i.
Procedure: The biodistribution of such prepared 68Ga-PSMA-11 was investigated in healthy Balb/c mice (n=5) after intravenous injection of 0.1mL (38 MBq/mL) (at 15, 30, 60 and 120min).

MC1R = biological target: T1, MC1R (Mus musculus, UniProt Q01727); experiment: MC1R binding affinity in B16/F10 melanoma cells; conditions: unlabelled peptides
T1 construct: endogenous in cells; host or cells: B16/F10
T1 sequence (Q01727 whole entry): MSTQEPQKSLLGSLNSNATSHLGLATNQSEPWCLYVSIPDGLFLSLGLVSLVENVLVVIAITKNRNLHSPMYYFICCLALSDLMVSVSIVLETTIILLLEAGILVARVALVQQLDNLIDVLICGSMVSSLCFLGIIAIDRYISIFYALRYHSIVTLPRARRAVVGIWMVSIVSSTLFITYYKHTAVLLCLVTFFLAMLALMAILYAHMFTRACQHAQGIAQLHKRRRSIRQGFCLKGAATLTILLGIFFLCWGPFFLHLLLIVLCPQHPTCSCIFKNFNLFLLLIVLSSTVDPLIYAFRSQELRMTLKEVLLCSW

GRP receptors = GRP receptors (Homo sapiens, UniProt P30550); experiment: GRP receptor affinity of PD-410; assay type: binding
Sequence of GRP receptors (P30550 whole entry): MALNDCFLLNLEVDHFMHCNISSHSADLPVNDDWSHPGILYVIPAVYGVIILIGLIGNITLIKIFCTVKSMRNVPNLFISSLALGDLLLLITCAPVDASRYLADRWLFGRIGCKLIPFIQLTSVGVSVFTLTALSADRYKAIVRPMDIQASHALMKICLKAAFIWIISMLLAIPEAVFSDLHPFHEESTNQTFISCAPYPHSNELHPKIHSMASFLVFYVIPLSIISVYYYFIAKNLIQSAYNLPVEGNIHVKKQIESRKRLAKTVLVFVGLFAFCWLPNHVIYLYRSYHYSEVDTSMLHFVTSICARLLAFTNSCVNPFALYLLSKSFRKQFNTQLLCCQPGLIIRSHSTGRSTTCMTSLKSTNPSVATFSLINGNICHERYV
Text: Introduction: The Gastrin Releasing Peptide (GRP) receptor has high expression on prostate cancer cells. Consequently, bombesin, a 14-amino acid peptide that binds with high affinity to GRP receptors, has been widely studied for the development of radiopeptides for application in prostate cancer imaging. To overcome some limitations of radiolabelled peptides, we developed a small molecule non-peptidic radiotracer targeting GRP receptors. […] The aim of the present study is to develop a non-peptidic fluorine-18 PET radioligand with antagonist properties, for visualization of GRP receptors.

[2] = test system: human breast cancer cell lines; parameters: method as in not given; conditions: ref not given; cited from earlier work
Text: Introduction: Substituted benzotiazoles (BT) are a class of compounds with high affinity and selectivity to aryl hydrocarbon receptor (AhR), a receptor often expressed in breast cancer tissue.

HDAC6 [3] = biological target: T2, HDAC6 (Homo sapiens, UniProt Q9UBN7); experiment: Autoradiography on PC3/LNCaP prostate tumor slices; assay type: binding; conditions: 100 μM
T2 construct: wild-type Wistar rat brain tissue and PC3/LNCaP prostate tumor slices; from tissue; host or cells: PC3 and LNCaP prostate tumour slices (xenografts)
T2 sequence (Q9UBN7 1-1215): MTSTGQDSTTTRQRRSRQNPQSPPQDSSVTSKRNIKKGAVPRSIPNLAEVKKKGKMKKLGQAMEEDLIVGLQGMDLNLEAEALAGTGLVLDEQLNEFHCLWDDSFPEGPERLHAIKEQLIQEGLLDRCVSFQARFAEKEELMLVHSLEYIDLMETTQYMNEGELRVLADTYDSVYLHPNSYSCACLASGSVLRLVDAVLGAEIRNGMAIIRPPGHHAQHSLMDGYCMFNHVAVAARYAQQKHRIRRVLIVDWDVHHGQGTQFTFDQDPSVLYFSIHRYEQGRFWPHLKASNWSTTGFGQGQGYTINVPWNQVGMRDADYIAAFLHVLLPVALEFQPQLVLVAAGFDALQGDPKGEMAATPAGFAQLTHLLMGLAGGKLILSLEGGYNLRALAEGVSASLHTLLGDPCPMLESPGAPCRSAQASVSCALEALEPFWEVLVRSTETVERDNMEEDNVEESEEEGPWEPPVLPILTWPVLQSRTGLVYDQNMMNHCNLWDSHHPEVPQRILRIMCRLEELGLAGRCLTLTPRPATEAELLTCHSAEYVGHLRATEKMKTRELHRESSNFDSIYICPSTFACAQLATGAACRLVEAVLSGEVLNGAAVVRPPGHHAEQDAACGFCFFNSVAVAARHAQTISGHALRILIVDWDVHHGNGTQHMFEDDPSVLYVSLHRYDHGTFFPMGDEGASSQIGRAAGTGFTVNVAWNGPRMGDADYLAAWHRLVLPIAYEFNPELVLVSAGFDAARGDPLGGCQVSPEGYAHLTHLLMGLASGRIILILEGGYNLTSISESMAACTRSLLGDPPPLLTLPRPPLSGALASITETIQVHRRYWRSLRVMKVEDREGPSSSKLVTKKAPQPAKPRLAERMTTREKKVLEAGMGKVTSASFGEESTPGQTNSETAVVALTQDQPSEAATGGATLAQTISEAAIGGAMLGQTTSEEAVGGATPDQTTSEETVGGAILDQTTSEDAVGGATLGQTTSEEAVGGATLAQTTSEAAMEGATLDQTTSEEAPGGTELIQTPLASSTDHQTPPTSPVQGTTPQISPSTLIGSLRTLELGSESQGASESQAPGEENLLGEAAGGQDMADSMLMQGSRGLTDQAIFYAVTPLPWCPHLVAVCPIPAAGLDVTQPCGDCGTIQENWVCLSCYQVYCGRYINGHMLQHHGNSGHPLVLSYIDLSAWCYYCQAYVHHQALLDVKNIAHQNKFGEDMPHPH
Procedure: (§1) The biodistribution was studied in NMRI-mice at 2, 10, 30 and 60 min (n = 3/time point) post injection (p.i.). Organs and tissues were harvested and radioactivity was counted in a gamma-counter. […] Slices were incubated with 18.5 MBq/400μL (brain) or 18.5 MBq/250 μL (tumor) of tracer with/without 100 μM of cold authentic reference compound (KB631) or non-structural related pan-HDAC inhibitor Suberoylanilide hydroxamic acid (SAHA).

HDAC6 [4] = biological target: T3, HDAC6 (Rattus norvegicus, UniProt A0A8I6GM68); experiment: Autoradiography on Wistar rat brain tissue; assay type: binding; conditions: rat brain slices, 100 μM
T3 construct: wild-type Wistar rat brain tissue; from tissue; host or cells: wild-type Wistar rat brain slices
T3 sequence (A0A8I6GM68 whole entry): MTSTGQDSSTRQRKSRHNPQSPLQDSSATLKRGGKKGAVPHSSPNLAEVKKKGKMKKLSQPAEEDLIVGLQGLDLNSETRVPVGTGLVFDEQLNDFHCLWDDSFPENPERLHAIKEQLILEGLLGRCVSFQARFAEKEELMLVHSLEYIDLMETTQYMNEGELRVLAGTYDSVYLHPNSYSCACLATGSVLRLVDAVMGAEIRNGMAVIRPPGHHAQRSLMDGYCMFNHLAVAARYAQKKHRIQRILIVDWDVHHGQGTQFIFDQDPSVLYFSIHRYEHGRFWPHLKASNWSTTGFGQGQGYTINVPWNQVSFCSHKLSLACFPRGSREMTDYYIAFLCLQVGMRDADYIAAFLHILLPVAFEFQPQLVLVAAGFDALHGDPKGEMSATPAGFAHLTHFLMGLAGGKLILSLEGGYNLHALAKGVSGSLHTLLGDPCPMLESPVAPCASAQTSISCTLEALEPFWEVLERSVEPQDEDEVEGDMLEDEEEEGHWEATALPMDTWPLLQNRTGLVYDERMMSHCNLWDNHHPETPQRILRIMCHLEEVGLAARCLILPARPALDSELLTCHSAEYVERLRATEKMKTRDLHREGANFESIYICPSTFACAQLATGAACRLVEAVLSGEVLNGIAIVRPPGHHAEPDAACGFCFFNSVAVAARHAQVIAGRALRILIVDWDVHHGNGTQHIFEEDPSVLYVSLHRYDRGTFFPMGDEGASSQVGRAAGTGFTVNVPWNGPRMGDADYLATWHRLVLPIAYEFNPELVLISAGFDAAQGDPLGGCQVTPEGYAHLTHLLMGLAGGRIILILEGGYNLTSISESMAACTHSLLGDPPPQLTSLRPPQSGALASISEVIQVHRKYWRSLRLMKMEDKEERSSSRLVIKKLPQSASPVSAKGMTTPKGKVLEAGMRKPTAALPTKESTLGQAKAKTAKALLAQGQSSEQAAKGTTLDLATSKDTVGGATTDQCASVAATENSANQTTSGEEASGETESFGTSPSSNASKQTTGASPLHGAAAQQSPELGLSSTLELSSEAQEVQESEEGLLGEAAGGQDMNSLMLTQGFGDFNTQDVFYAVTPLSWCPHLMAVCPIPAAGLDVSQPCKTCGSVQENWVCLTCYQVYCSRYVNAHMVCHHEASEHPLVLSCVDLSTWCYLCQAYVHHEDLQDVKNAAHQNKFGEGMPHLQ
Procedure: as §1

[5] = Procedure: Methods: Labelling was carried out in a remote controlled synthesis unit under clean room conditions. Quality control included TLC, HPLC, GC, pH control, Ge-breakthrough, half-life, endotoxin content, and control of sterility. Storage stability after 4 h was studied and dose estimations based on animal data were carried out using OLINDA. Sprague-Dawley rats were used for an extended single dose toxicity study. The phase I clinical study included 9 patients with hepatocellular carcinoma (HCC). Static scans at 5, 30, and 60 min p.i. including 5 bed positions each were performed using the Discovery 690 PET/CT. Blood was sampled 30 and 60 min p.i. and urine 60 min p.i. and used for stability studies via HPLC.
[6] = Extended single dose toxicity study in Sprague-Dawley rats; assay type: in vivo
[7] = PET/CT imaging in nude mice bearing U87MG xenograft tumor; assay type: in vivo; conditions: mouse, 90 min post injection
Procedure: Materials and methods: The PET imaging properties of [^68Ga]FSC(succ-RGD)3 were studied in nude mice bearing M21 human melanoma xenografts and human glioblastoma U87MG xenograft tumor. A parallel PET imaging of ^68GaNODAGA-RGD in same mouse bearing U87MG xenograft tumor was performed as a comparison.

AR42J and U87MG = experiment: Real-time binding and retention on tumor cells (Ligand Tracer); assay type: cell-based
Procedure: Materials and Methods: The radiolabelling was performed using an automated system with inline quality control. Fraction of 68GaCl3 eluate from an organic matrix based 68Ge/68Ga generator, 400-700 MBq in 2 mL, was used to label NOTA/NODAGA/DOTA-derivatised cRGD peptides. Elution, labeling and purification procedures were performed in 20-25 min. […] The affinity of cyclo-RGD peptides to tumor cell-surface receptors was determined by real-time quantification using Ligand Tracer.

U87MG tumor = test system: U87MG tumor
Procedure: Materials and Methods: The radiolabelling was performed using an automated system with inline quality control. Fraction of 68GaCl3 eluate from an organic matrix based 68Ge/68Ga generator, 400-700 MBq in 2 mL, was used to label NOTA/NODAGA/DOTA-derivatised cRGD peptides. Elution, labeling and purification procedures were performed in 20-25 min. The biodistribution was tested in tumor bearing animal models (U87MG, Walker 256, B21 and AR42J). The affinity of cyclo-RGD peptides to tumor cell-surface receptors was determined by real-time quantification using Ligand Tracer.

O=C(O)CCc1ccc(O)c(CN(CCN(CC(=O)O)Cc2cc(CCC(=O)NCCCCCC(=O)NCCCC[C@H](NC(=O)N[C@@H](CCC(=O)O)C(=O)O)C(=O)O)ccc2O)CC(=O)O)c1 [68Ga-PSMA-11, Glu-CO-Lys(Ahx)-HBED-CC, metal not drawn]
urine elimination [1]: > 70%

CC(C)[C@H](NC(=O)[C@@H]1CCCN1C(=O)[C@H](CCCNC(=N)N)NC(=O)[C@@H]1CCC(=O)NCCCC[C@H](NC(=O)CCNC(=O)CCCCCNC(=O)[C@@H](N)CS)C(=O)N[C@@H](CCC(=O)O)C(=O)N[C@@H](Cc2c[nH]cn2)C(=O)N[C@H](Cc2ccccc2)C(=O)N[C@@H](CCCNC(=N)N)C(=O)N[C@@H](Cc2c[nH]c3ccccc23)C(=O)N1)C(N)=O [NAP_NS2, H-Cys-Ahx-βAla^3-c[Lys^4-Glu-His-D-Phe-Arg-Trp-Glu^10]-Arg^11-Pro-Val-NH2] (H-C[Ahx][βAla]KEH[dF]RWERPV-NH2; lactam 4-10)
Ki (MC1R): 7.1 ± 2.4 nM

C[C@@](Cc1c[nH]c2ccccc12)(NC(=O)Nc1ccc([N+](=O)[O-])cc1)C(=O)NCC1(c2ccc(OCCF)cn2)CCCCC1 [PD-410, (S)-3-(1H-indol-3-yl)-N-[1-[5-(2-fluoroethoxy)pyridin-2-yl]cyclohexylmethyl]-2-methyl-2-[3-(4-nitrophenyl)ureido]propionamide]
Ki (GRP receptors): 38 ± 2 nM

COc1ccc(-c2nc3cc(F)ccc3s2)cc1OC [PMX 610, 2-(3,4-dimethoxyphenyl)-5-fluorobenzothiazole]
GI50 [2]: < 0.1 nM

O=C(CCCCCCC(=O)Nc1ccccc1)NO [SAHA, Suberoylanilide hydroxamic acid]
displacement of [11C]KB631 binding, LNCaP (HDAC6 [3]; LNCaP tumor slices): 59% | displacement of [11C]KB631 binding, PC3 (HDAC6 [3]; PC3 tumor slices): 39% | displacement of [11C]KB631 binding, brain (HDAC6 [4]): 73%

N=C(N)NCCC[C@@H]1NC(=O)[C@H](CCCCNC(=O)CCC(C(=O)O)N2CCN(CC(=O)O)CCN(CC(=O)O)CC2)NC(=O)[C@@H](Cc2ccccc2)NC(=O)[C@H](CC(=O)O)NC(=O)CNC1=O (stereo partly drawn) [[68Ga]NODAGA-RGD, metal not drawn]
side effects in clinical study ([5]; 9 patients with HCC): no severe side effects were observed | calculated effective dose ([5]; human, in vivo): 21.5±5.4 μSv/MBq | metabolic stability ([5]; patient blood (30, 60 min p.i.) and urine (60 min p.i.), HPLC): High metabolic stability | tolerability in single dose toxicity study [6]: well tolerated in animals | tissue to tissue ratio at […] ([7]; tumour and kidneys, read-out: tumor/kidneys ratio): 1.6 | tissue to tissue ratio at […] ([7]; tumour and muscle, read-out: tumor/muscle ratio): 5

DOTA-E-[c(RGDfK)2] (head to tail) [68Ga-DOTA-E-[c(RGDfK)2]]
retention, from activity in the cells (AR42J and U87MG): up to 58% | tumor uptake (U87MG tumor): Up to 5.3 % ID/g
